Like-named read-outs stand apart in the source and are kept apart here.
Experiments:
6H5L [1] = test: retro-aldol fluorescence assay; format: biochemical, synthetic construct; conditions: 50 mM sodium phosphate, 150 mM NaCl, 7.5% DMSO, pH 8, 29 °C
6H5L_RA2 = test: retro-aldol fluorescence assay; format: biochemical, synthetic construct; conditions: 50 mM sodium phosphate, 150 mM NaCl, 7.5% DMSO, pH 8, 29 °C
6H5L_Top = test: retro-aldol fluorescence assay; format: biochemical, synthetic construct; conditions: 50 mM sodium phosphate, 150 mM NaCl, 7.5% DMSO, pH 8, 29 °C
6H5L [2] = conditions: 6H5L_K223; 50 mM sodium phosphate, 150 mM NaCl, 7.5% DMSO, pH 8, 29 °C
6H5L_RA1 = test: retro-aldol fluorescence assay; format: biochemical, synthetic construct; conditions: 50 mM sodium phosphate, 150 mM NaCl, 7.5% DMSO, pH 8, 29 °C

COc1ccc2cc(C(O)CC(C)=O)ccc2c1 (racemic) [compound 3, 4-hydroxy-4-(6-methoxy-2-naphthyl)-2-butanone]
Km (6H5L [1]): 371 ± 62 µM
Km (6H5L_RA2): 1550 ± 225 µM
Km (6H5L_Top): 453 ± 49.3 µM
Km (6H5L [2]): 967 ± 211 µM
Km (6H5L_RA1): 1040 ± 128 µM

Source: publication doi:10.1101/2024.10.07.617055v4 (biorxiv, 2026)
